This note sets out measurements from patent US9732094B2, “Arylquinazolines” (Merck Patent GmbH, priority 2013, dated 2017).

Each structure is given as a SMILES string. Where two headings read alike, the source gives them in different places. Where only a bound is given, the exact number is not on record here.

One data set has as its target Kv11.1 (hERG) (Homo sapiens (Human), UniProt Q12809). Description: Kv11.1 (hERG) ion channel activity (patch clamp assay), HEK293 cells transfected with hERG gene. As to conditions: hERG patch clamp assay (cells without asterisk). In general terms: hERG is a cardiac potassium channel; its block is linked to QT prolongation.
For another data set, the target named is DNA-PK (Homo sapiens (Human), UniProt P78527). In words: DNA-PK assay (biochemical), flashplate 33P-ATP kinase assay. As to conditions: biochemical DNA-PK assay. In short, it runs like this: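 Reactions ran in streptavidin-coated flashplates and were halted by 200 mM EDTA, with a further 30 min at room temperature before saline washing.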
Data set [1] addresses DNA-PK phosphorylation at serine 2056 (Homo sapiens (Human), UniProt P78527). Description: DNA-PK phosphorylation at serine 2056 (cellular), bleomycin-treated HCT116 cells, ELISA. The class given is cell-based. As to conditions: cellular DNA-PK phosphorylation at serine 2056, HCT116; read-out: IC50 pDNA-PK. In short, it runs like this: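 Chemiluminescent ELISA read-out; phospho-specific signal normalised to total DNA-PKcs. Cells (HCT116) exposed 6 h to test compound plus 10 μM bleomycin to induce double-strand breaks; DMSO control served as blank.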

Chain of Kv11.1 (hERG) (Q12809 whole entry): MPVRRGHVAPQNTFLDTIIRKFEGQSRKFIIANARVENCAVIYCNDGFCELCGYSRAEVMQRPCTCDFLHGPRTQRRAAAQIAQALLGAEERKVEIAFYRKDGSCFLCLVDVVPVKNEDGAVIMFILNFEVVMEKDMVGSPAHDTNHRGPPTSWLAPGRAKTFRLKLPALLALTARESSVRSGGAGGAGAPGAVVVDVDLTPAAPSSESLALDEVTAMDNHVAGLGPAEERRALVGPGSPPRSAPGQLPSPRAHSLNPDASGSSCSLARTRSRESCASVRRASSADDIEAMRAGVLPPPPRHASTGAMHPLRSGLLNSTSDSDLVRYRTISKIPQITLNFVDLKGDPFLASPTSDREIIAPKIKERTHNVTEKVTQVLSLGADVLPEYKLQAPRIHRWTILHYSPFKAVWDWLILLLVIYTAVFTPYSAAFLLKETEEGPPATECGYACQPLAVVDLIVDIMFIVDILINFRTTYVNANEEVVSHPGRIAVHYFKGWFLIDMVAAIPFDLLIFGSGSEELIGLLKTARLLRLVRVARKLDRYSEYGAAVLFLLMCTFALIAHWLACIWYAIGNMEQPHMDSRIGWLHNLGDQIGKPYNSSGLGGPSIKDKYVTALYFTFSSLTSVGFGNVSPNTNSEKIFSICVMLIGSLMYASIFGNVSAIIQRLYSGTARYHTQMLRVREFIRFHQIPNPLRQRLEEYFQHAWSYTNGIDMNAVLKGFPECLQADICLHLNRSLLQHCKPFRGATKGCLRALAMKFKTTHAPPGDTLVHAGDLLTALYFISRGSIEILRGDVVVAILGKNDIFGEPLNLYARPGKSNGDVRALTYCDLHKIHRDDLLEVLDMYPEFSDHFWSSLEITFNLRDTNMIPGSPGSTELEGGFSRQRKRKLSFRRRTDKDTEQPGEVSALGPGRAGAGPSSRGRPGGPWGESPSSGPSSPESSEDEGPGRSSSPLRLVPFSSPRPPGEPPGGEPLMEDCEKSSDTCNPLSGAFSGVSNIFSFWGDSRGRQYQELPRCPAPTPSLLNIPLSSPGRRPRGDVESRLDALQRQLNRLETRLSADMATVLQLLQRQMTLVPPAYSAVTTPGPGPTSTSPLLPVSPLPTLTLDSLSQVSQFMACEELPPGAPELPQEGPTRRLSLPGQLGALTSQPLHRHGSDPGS

Turning to `[2H]C1([2H])OC([2H])([2H])C([2H])([2H])N(c2ccc3c(-c4cc(C(O)c5nccnc5OC)c(Cl)cc4F)ncnc3c2)C1([2H])[2H]` (stereo not drawn) [Example 241, [2-Chloro-4-fluoro-5-[7-(2,2,3,3,5,5,6,6-octadeuteriomorpholin-4-yl)quinazolin-4-yl]phenyl]-(3-methoxypyrazin-2-yl)methanol], the Ki (as a rule, a dissociation constant, usually derived from enzyme kinetics or from competition with a known ligand) on Kv11.1 (hERG) (Ki [Kv1.11 hERG]) was in the range of 10 to 15 µM. Moreover, the IC50 (in general, the point on the concentration scale where inhibition reaches its midpoint) at DNA-PK is under 0.003 µM; in data set [1], under 0.5 µM.

The molecule `[2H]C1([2H])OC([2H])([2H])C([2H])([2H])N(c2ccc3c(-c4cc(C(O)c5nccnc5OC)c(Cl)cc4F)ncnc3c2)C1([2H])[2H]` (stereo not drawn) [Example 242, [2-Chloro-4-fluoro-5-[7-(2,2,3,3,5,5,6,6-octadeuteriomorpholin-4-yl)quinazolin-4-yl]phenyl]-(3-methoxypyrazin-2-yl)methanol] displayed a Ki on Kv11.1 (hERG) (Ki [Kv1.11 hERG]) of 15 to 25 µM. The half-inhibitory concentration (IC50) against DNA-PK was under 0.003 µM; in data set [1] it was under 0.5 µM.

As to `[2H]C1([2H])OC([2H])([2H])C([2H])([2H])N(c2ccc3c(-c4cc([C@H](O)c5nccnc5C)ccc4F)ncnc3c2)C1([2H])[2H]` [Example 243, (S)-[4-Fluoro-3-[7-(2,2,3,3,5,5,6,6-octadeuteriomorpholin-4-yl)quinazolin-4-yl]phenyl]-(3-methylpyrazin-2-yl)methanol], the inhibition constant (Ki) on Kv11.1 (hERG) (read-out: Ki [Kv1.11 hERG]) lay within 15 to 25 µM. The half-inhibitory concentration (IC50) on DNA-PK fell in the range of 0.007 to 0.03 µM; in data set [1] it was 0.5 to 5 µM.

Consider `COc1nccnc1C(O)c1cc(-c2ncnc3cc(N4CCOCC4)cnc23)c(F)cc1Cl` (stereo not drawn) [Example 247, [2-Chloro-4-fluoro-5-(7-morpholin-4-yl-pyrido[3,2-d}-pyrimidin-4-yl)-phenyl]-(3-methoxy-pyrazin-2-yl)-methanol], for which the Ki on Kv11.1 (hERG) (Ki [Kv1.11 hERG]) fell in the range of 15 to 25 µM. Further, the 50% inhibitory concentration (IC50) against DNA-PK lay in the range of 0.007 to 0.03 µM; in data set [1], 5 to 10 µM.

Turning to `Cc1nccnc1[C@H](O)c1ccc(F)c(-c2ncnc3cc(N4CCOCC4)cc(F)c23)c1` [Example 248, (R)-[4-Fluoro-3-(5-fluoro-7-morpholin-4-ylquinazolin-4-yl)-phenyl]-(3-methyl-pyrazin-2-yl)-methanol], the inhibition constant (Ki) at Kv11.1 (hERG) (read-out: Ki [Kv1.11 hERG]) was over 25 µM. For the same molecule, the IC50 on DNA-PK is under 0.003 µM; in data set [1] it was under 0.5 µM.

Take `COc1ccc(C(O)c2cc(-c3ncnc4cc(N5CCOCC5)cnc34)c(F)cc2Cl)nn1` (stereo not drawn) [Example 257, [2-Chloro-4-fluoro-5-(7-morpholin-4-yl-pyrido[3,2-d}-pyrimidin-4-yl)-phenyl]-(6-methoxy-pyridazin-3-yl)-methanol]: the inhibition constant (Ki) on Kv11.1 (hERG) (read-out: Ki [Kv1.11 hERG]) was over 25 µM. In addition, the 50% inhibitory concentration (IC50) on DNA-PK lay within 0.003 to 0.007 µM; in data set [1] it was 0.5 to 5 µM.

For the molecule `COc1ccc(C(O)c2ccc(F)c(-c3ncnc4cc(N5CCOCC5)cc(F)c34)c2)nn1` (stereo not drawn) [Example 260, [4-Fluoro-3-(5-fluoro-7-morpholin-4-yl-quinazolin-4-yl)-phenyl]-(6-methoxy-pyridazin-3-yl)-methanol], the Ki at Kv11.1 (hERG) (read-out: Ki [Kv1.11 hERG]) was over 25 µM. The IC50 was under 0.003 µM at DNA-PK and under 0.5 µM in data set [1].

Regarding `COc1nccnc1C(C(N)=O)c1cc(-c2ncnc3cc(N4CCOCC4)cc(F)c23)c(F)cc1Cl` (stereo not drawn) [Example 261, 2-[2-Chloro-4-fluoro-5-(5-fluoro-7-morpholin-4-yl-quinazolin-4-yl)-phenyl]-2-(3-methoxy-pyrazin-2-yl)acetamide], at Kv11.1 (hERG) (Ki [Kv1.11 hERG]), the Ki fell in the range of 15 to 25 µM. For the same molecule, the results for the IC50 (at DNA-PK; in data set [1]) were 0.007 to 0.03 µM and 0.5 to 5 µM, respectively.

As to `Cc1nccnc1C(O)c1ccc(F)c(-c2ncnc3cc(N4CCOCC4)c(F)cc23)c1` (stereo not drawn) [Example 283, [4-Fluoro-3-(6-fluoro-7-morpholin-4-yl-quinazolin-4-yl)-phenyl]-(3-methyl-pyrazin-2-yl)-methanol], the Ki at Kv11.1 (hERG) (read-out: Ki [Kv1.11 hERG]) was over 25 µM. The IC50 is 0.007 to 0.03 µM on DNA-PK and 10 to 30 µM in data set [1].

At Kv11.1 (hERG) (Ki [Kv1.11 hERG]), `NC(=O)C(c1ccc(F)c(-c2ncnc3cc(N4CCOCC4)ccc23)c1)c1nncc2sccc12` (stereo not drawn) [Example 285, 2-[4-Fluoro-3-(7-morpholin-4-yl-quinazolin-4-yl)-phenyl]-2-thieno-[2,3-d}pyridazin-4-yl-acetamide] showed an inhibition constant Ki of 15 to 25 µM. Besides, the IC50 fell in the range of 0.003 to 0.007 µM on DNA-PK and 10 to 30 µM in data set [1].

As to `NC(=O)C(c1cc(-c2ncnc3cc(N4CCOCC4)ccc23)c(F)cc1Cl)c1ncccc1Cl` (stereo not drawn) [Example 289, 2-[2-Chloro-4-fIuoro-5-(7-morpholin-4-yl-quinazolin-4-yl)-phenyl]-2-(3-chloro-pyridin-2-yl)-acetamide], the Ki on Kv11.1 (hERG) (Ki [Kv1.11 hERG]) was in the range of 15 to 25 µM. For the same molecule, the IC50 at DNA-PK is under 0.003 µM; in data set [1], 0.5 to 5 µM.

Turning to `NC(=O)C(c1ccc(F)c(-c2ncnc3cc(N4CCOCC4)ccc23)c1)c1nnc(Cl)c2ccsc12` (stereo not drawn) [Example 290, 2-(4-Chlorothieno-[2,3-d}pyridazin-7-yl)-2-[4-fluoro-3-(7-morpholin-4-yl-quinazolin-4-yl)-phenyl]acetamide], the Ki at Kv11.1 (hERG) (read-out: Ki [Kv1.11 hERG]) was under 10 µM. For the same molecule, the half-inhibitory concentration (IC50) was in the range of 0.003 to 0.007 µM at DNA-PK and 5 to 10 µM in data set [1].

As for `NC(=O)C(c1ccc(F)c(-c2ncnc3cc(N4CCOCC4)ccc23)c1)c1nnc(Cl)c2sccc12` (stereo not drawn) [Example 291, 2-(7-Chlorothieno-[2,3-d}pyridazin-4-yl)-2-[4-fluoro-3-(7-morpholin-4-yl-quinazolin-4-yl)-phenyl]acetamide], the inhibition constant Ki at Kv11.1 (hERG) (read-out: Ki [Kv1.11 hERG]) was under 10 µM. In addition, the values for the half-maximal inhibitory concentration (IC50) (against DNA-PK; in data set [1]) were 0.003 to 0.007 µM and 5 to 10 µM, respectively.

With `NC(=O)c1cncc(C(C(N)=O)c2ccc(F)c(-c3ncnc4cc(N5CCOCC5)ccc34)c2)n1` (stereo not drawn) [Example 292, 6-{Carbamoyl-[4-fluoro-3-(7-morpholin-4-yl-quinazolin-4-yl)-phenyl]methyl}-pyrazine-2-carboxylic acid amide], the inhibition constant (Ki) on Kv11.1 (hERG) (read-out: Ki [Kv1.11 hERG]) was over 25 µM. Also, the IC50 fell in the range of 0.007 to 0.03 µM on DNA-PK and 10 to 30 µM in data set [1].

Turning to `NC(=O)C(c1cccnc1)c1cc(-c2ncnc3cc(N4CCOCC4)ccc23)c(F)cc1Cl` (stereo not drawn) [Example 293, 2-[2-Chloro-4-fiuoro-5-(7-morpholin-4-yl-quinazolin-4-yl)-phenyl]-2-pyridin-3-ylacetamide], on Kv11.1 (hERG) (read-out: Ki [Kv1.11 hERG]), the Ki is over 25 µM. In addition, the results for the IC50 (on DNA-PK; in data set [1]) were 0.003 to 0.007 µM and 5 to 10 µM, respectively.

In the case of `NC(=O)C(c1cccnc1)c1cc(-c2ncnc3cc(N4CCOCC4)ccc23)c(F)cc1F` (stereo not drawn) [Example 294, 2-[2,4-Difluoro-5-(7-morpholin-4-yl-quinazolin-4-yl)-phenyl]-2-pyridin-3-ylacetamide], at Kv11.1 (hERG) (read-out: Ki [Kv1.11 hERG]), the Ki was over 25 µM. Moreover, the concentration for half-maximal inhibition (IC50) against DNA-PK was 0.003 to 0.007 µM; in data set [1] it was 10 to 30 µM.

As to `NC(=O)C(c1cccnc1)c1ccc(F)c(-c2ncnc3cc(N4CCOCC4)ccc23)c1` (stereo not drawn) [Example 295, 2-[4-Fluoro-3-(7-morpholin-4-yl-quinazolin-4-yl)-phenyl]-2-pyridin-3-ylacetamide], on Kv11.1 (hERG) (read-out: Ki [Kv1.11 hERG]), the inhibition constant (Ki) is over 25 µM. For the same molecule, the figures for the 50% inhibitory concentration (IC50) (against DNA-PK; in data set [1]) were 0.007 to 0.03 µM and 10 to 30 µM, respectively.

As for `Cc1cncc(C(O)c2ccc(F)c(-c3ncnc4cc(N5CCOCC5)ccc34)c2)n1` (stereo not drawn) [Example 296, [4-Floro-3-(7-morpholin-4-yl-quinazolin-4-yl)-phenyl]-(6-methyl-pyrazin-2-yl)-methanol], at Kv11.1 (hERG) (read-out: Ki [Kv1.11 hERG]), the Ki was over 25 µM. The IC50 fell in the range of 0.007 to 0.03 µM against DNA-PK and 5 to 10 µM in data set [1].

`NC(=O)C(c1cncc(Cl)c1)c1ccc(F)c(-c2ncnc3cc(N4CCOCC4)ccc23)c1` (stereo not drawn) [Example 297, 2-(5-Chloro-pyridin-3-yl)-2-[4-fluoro-3-(7-morpholin-4-yl-quinazolin-4-yl)-phenyl]acetamide] showed a Ki at Kv11.1 (hERG) (Ki [Kv1.11 hERG]) of 10 to 15 µM. Also, the half-inhibitory concentration (IC50) on DNA-PK was 0.007 to 0.03 µM; in data set [1], 10 to 30 µM.
